Laboratory results from ChEMBL document CHEMBL1201862, “PubChem BioAssay data set” (2004).
Calls of active or inactive are those of the source.

What was measured:
[1] = test system: Vero; assay: viability of Vero cells under compound – cytotoxicity control for flavivirus capping enzyme inhibitors (AID 588742); format: functional; conditions: Chlorocebus sabaeus
[2] = biological target: Heat shock protein HSP 90-alpha (Homo sapiens, UniProt P07900); format: functional, organism-based
[3] = biological target: Genome polyprotein (dengue virus type 2, UniProt P29990); assay: flavivirus cap methylation enzyme inhibition – biochemical, confirmation dose response, primary screen (AID 588689); format: functional
Sequence of Genome polyprotein (P29990 2492-3391 limits assumed): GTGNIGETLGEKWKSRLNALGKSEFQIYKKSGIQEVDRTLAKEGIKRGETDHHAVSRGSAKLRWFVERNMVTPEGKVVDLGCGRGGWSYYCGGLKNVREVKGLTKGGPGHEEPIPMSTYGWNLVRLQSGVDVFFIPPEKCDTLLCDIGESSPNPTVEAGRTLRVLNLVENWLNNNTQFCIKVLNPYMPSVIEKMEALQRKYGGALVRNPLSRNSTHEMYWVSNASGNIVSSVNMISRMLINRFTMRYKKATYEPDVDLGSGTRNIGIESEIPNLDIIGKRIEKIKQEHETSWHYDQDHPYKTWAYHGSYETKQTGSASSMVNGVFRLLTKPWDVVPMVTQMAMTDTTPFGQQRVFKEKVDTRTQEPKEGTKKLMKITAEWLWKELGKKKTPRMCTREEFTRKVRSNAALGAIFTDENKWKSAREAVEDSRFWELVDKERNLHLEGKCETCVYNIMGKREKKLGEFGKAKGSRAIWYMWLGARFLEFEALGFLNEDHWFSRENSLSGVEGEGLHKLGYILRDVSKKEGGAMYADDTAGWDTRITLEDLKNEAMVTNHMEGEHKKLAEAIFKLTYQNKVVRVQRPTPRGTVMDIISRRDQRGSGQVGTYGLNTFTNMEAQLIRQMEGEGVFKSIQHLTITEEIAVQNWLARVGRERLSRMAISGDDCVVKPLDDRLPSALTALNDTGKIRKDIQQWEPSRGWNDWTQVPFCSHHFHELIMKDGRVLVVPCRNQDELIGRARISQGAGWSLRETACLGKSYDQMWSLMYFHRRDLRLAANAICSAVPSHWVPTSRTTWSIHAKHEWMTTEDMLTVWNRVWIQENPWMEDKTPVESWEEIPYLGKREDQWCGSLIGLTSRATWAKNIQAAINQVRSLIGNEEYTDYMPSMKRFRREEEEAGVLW

[4] = fluconazole-exposed Candida albicans growth modulators – fluorescence, retest, confirmation (AID 2467); format: functional, cell-based
[5] = biological target: T1, Rac GTPase-activating protein 1 (Homo sapiens, UniProt Q9H0H5); assay: blockers of MgcRacGAP-driven Rac1 GTP hydrolysis – biochemical, ADP Hunter fluorescence, primary and confirmatory, confirmation (AID 624330); format: functional
T1 sequence (Q9H0H5 whole entry): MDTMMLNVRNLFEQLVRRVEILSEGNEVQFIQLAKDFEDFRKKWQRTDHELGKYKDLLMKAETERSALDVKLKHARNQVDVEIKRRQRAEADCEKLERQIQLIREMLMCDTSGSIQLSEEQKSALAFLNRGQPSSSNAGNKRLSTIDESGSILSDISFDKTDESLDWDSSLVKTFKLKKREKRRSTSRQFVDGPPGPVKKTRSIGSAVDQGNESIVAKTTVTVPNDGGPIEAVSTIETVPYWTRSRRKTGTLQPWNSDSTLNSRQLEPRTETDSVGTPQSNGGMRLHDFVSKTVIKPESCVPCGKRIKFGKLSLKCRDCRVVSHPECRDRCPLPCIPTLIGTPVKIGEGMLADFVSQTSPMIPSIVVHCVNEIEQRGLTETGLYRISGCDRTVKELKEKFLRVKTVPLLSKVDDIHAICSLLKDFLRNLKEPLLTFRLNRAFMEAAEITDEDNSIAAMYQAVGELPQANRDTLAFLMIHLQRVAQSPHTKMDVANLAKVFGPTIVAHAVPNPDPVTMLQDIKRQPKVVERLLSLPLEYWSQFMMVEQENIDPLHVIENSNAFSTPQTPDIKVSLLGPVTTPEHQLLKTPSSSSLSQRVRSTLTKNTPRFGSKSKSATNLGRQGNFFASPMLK

[6] = biological target: ATP-dependent molecular chaperone HSP82 (Candida albicans (strain WO-1) (Yeast), UniProt C4YTQ8); assay: steroid-induced GRE reporter decrease in yeast – S. cerevisiae, luminescence, Hsp90 inhibitor project, dose response (AID 2400); format: functional, cell-based;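 further: beta-galactosidase luminescence from glucocorticoid response element reporter as proxy for Hsp90 function; inhibitor potency where signal loss means Hsp90 inhibition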
Sequence of ATP-dependent molecular chaperone HSP82 (C4YTQ8 whole entry): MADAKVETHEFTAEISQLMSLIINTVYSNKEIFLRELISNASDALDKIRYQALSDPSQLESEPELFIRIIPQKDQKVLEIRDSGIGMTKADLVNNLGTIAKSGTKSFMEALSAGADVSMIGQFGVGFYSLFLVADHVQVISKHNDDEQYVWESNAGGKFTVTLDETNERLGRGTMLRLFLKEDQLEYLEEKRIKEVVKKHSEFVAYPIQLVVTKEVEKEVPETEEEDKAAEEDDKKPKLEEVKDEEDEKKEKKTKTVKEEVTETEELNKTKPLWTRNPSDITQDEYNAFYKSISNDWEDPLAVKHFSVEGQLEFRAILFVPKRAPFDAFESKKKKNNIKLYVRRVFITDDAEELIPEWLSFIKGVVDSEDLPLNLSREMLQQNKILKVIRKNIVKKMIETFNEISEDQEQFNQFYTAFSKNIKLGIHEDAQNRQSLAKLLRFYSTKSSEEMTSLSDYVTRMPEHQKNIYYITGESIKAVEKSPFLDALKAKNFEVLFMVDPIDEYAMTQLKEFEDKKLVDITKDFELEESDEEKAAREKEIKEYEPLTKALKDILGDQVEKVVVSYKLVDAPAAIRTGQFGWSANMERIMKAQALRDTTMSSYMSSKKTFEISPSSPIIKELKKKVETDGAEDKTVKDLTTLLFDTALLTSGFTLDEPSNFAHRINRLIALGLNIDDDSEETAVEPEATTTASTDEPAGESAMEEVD

[7] = biological target: T2, Serine/threonine-protein phosphatase (Candida dubliniensis (strain CD36 / CBS 7987 / NCPF 3949 / NRRLY-17841) (Yeast), UniProt B9W6M3); assay: blockers of CaCl2-induced CDRE-lacZ signaling – S. cerevisiae, luminescence, secondary, dose response (AID 2388); format: functional, cell-based;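 further: yeast reporter cells carrying a calcineurin-responsive lacZ construct stimulated with calcium chloride; luminescent beta-galactosidase reporter signal in whole cells rather than isolated phosphatase activity; potency for inhibition where a drop in reporter signal means calcineurin blockade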
T2 sequence (B9W6M3 whole entry): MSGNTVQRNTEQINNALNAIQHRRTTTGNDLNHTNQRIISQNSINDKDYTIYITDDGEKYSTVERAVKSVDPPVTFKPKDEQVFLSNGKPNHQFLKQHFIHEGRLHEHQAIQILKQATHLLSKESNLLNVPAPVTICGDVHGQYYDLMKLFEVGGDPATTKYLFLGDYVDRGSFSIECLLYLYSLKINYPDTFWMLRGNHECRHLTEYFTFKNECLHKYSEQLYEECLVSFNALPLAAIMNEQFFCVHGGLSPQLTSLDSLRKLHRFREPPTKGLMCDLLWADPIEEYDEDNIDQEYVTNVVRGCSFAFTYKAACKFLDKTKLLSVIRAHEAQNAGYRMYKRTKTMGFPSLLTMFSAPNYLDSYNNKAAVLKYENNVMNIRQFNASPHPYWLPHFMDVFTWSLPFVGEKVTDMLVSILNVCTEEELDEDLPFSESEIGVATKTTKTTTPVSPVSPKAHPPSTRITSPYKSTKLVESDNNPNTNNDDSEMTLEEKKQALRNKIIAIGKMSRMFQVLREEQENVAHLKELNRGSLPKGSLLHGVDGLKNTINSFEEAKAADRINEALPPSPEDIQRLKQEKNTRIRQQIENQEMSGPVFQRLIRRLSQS

[8] = NIH-3T3 fibroblast cytotoxicity, dose response, cytotoxicity control, cell-based, fluorescence, Alamar Blue, secondary assay (AID 2327); format: functional;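 further: NIH-3T3 mouse fibroblasts cultured with fluconazole at 8 µg/mL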
[9] = biological target: T3, Polyadenylate-binding protein 1 (Homo sapiens, UniProt P11940); assay: MLLE binding blockers, Cy5 peptide tracer – biochemical, fluorescence polarization, Cy5-PAM2 peptide, secondary, miRNA deadenylation inhibitor project, dose response (AID 602260); format: functional; conditions: read-out: IC50_Mean
T3 sequence (P11940 whole entry, the tested form may be a part): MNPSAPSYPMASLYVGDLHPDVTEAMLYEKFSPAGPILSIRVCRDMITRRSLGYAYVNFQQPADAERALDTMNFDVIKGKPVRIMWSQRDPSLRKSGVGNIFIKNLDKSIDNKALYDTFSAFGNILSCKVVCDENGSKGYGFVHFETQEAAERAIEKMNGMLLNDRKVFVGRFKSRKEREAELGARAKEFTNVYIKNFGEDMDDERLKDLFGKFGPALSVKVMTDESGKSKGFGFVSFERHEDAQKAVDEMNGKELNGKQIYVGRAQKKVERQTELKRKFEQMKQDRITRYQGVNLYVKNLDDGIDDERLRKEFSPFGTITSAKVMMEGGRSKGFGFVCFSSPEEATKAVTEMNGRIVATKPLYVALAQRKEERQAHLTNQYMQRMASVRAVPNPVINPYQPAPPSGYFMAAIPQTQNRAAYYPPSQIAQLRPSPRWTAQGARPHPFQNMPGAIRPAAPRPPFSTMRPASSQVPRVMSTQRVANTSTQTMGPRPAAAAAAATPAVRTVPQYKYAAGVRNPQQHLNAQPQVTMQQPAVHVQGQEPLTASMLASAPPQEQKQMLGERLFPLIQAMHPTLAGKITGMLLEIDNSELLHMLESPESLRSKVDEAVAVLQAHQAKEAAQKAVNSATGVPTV

[10] = biological target: T3, Polyadenylate-binding protein 1; assay: MLLE domain peptide-binding blockers, IC50 – biochemical, fluorescence polarization, FITC-PAM2 peptide, dose response (AID 602259); format: functional; conditions: read-out: IC50_Mean
[11] = biological target: 5-hydroxytryptamine receptor 2A (Mus musculus, UniProt P35363); format: functional, cell-based;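 further: CHO-K1 cells with tagged receptor and beta-arrestin; agonist potency measured as compound-induced activation of the receptor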
Sequence of 5-hydroxytryptamine receptor 2A (P35363 whole entry): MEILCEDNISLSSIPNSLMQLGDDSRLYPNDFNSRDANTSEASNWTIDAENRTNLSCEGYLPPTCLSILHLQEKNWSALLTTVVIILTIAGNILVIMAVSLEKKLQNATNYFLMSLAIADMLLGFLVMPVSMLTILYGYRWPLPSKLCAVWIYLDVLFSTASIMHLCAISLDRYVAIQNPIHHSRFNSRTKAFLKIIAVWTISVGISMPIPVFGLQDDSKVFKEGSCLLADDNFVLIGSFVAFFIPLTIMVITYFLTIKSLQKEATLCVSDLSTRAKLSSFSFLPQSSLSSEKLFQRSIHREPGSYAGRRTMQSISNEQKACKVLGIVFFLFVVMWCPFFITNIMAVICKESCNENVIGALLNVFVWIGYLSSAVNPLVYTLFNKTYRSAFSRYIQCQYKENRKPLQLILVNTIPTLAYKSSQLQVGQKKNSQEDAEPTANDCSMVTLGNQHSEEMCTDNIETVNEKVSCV

[12] = biological target: Mu-type opioid receptor (Homo sapiens, UniProt P35372); format: functional, cell-based;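 further: U2OS cells with beta-arrestin recruitment to OPRM1 by beta-gal complementation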
[13] = biological target: T4, Heat shock factor protein 1 (Mus musculus, UniProt P38532); assay: decrease of HSF1-responsive luciferase luminescence – cell-based, NIH3T3, dose retest, confirmation (AID 2382); format: functional;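 further: NIH3T3 fibroblasts with HSF1-driven luciferase reporter stressed by proteasome inhibitor MG132; luminescence from HSF1-driven luciferase expression after 8 hours of MG132 stress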
T4 sequence (P38532 whole entry): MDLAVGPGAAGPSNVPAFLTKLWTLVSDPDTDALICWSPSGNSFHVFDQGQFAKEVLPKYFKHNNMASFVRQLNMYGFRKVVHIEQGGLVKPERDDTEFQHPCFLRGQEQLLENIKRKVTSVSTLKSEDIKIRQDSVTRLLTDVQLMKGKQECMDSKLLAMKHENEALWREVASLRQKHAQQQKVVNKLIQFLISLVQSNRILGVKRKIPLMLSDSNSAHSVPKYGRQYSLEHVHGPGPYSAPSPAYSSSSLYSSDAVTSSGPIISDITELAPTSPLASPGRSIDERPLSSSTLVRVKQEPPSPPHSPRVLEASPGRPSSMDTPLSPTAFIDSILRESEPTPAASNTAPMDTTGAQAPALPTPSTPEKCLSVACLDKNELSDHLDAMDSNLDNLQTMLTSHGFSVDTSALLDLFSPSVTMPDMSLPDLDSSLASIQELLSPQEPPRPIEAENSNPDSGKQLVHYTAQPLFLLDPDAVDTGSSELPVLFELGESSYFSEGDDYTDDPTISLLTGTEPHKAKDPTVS

[14] = general cell-killing toxicity readout – plate reader, dry powder samples, cytotoxicity control for PAX8 inhibitor project, dose response (AID 743021); format: functional, cell-based
[15] = test system: H9c2; assay: cells; format: functional, cell-based; conditions: Rattus norvegicus, H9c2, Myocardium;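 further: confirmatory concentration-response retest of ultra-high-throughput screening hits for modulation of myocardial damage; cell death induced by hydrogen peroxide oxidative stress; compound pretreatment for 60 min then peroxide exposure for 2 h; potency is for protecting the cells against peroxide damage rather than for killing them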
[16] = biological target: Paired box protein Pax-8 (Homo sapiens, UniProt Q06710); assay: PAX8 transcriptional activity inhibition in RMG-I – RMG-I cells, luciferase, cherry-pick, dose response (AID 687027); format: functional, cell-based;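 further: luciferase reporter driven by Pax8 target thyroperoxidase promoter measured by SteadyGlo luminescence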
Sequence of Paired box protein Pax-8 (Q06710 whole entry): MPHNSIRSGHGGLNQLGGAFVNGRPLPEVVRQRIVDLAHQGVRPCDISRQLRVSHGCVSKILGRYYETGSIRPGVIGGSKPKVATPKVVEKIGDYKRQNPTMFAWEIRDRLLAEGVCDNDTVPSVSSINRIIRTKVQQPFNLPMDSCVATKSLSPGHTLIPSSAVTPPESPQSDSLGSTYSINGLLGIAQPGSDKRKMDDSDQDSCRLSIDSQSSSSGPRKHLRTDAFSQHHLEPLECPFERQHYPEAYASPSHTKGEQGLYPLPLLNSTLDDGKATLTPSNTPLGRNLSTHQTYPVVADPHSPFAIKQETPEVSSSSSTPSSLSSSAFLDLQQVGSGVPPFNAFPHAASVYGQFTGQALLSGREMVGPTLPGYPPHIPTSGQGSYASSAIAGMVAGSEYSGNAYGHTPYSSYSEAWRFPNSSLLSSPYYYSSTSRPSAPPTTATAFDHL

[17] = biological target: T5, Caspase-6 (Homo sapiens, UniProt P55212); assay: inhibition of CASP6 peptide cleavage – biochemical, VEID-R110 fluorescence, cherry-pick, dose response (AID 720632)
T5 sequence (P55212 whole entry): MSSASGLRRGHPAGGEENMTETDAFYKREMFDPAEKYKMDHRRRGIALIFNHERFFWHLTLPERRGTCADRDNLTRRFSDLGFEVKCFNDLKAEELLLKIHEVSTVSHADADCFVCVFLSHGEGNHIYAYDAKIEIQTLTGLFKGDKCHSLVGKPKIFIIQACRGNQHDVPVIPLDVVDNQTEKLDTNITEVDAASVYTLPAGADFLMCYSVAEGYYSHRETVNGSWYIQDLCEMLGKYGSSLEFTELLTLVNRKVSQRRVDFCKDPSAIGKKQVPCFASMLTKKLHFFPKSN

[18] = biological target: SWI/SNF-related matrix-associated actin-dependent regulator of chromatin subfamily A member 2 (Homo sapiens, UniProt P51531); assay: Luminescence-based cell-based high throughput dose response assay to identify activators of the function of SWI/SNF related, matrix associated, actin dependent regulator of chromatin, subfamily a, member 2 (SMARCA2, BRM).; format: functional
Sequence of SWI/SNF-related matrix-associated actin-dependent regulator of chromatin subfamily A member 2 (P51531 whole entry): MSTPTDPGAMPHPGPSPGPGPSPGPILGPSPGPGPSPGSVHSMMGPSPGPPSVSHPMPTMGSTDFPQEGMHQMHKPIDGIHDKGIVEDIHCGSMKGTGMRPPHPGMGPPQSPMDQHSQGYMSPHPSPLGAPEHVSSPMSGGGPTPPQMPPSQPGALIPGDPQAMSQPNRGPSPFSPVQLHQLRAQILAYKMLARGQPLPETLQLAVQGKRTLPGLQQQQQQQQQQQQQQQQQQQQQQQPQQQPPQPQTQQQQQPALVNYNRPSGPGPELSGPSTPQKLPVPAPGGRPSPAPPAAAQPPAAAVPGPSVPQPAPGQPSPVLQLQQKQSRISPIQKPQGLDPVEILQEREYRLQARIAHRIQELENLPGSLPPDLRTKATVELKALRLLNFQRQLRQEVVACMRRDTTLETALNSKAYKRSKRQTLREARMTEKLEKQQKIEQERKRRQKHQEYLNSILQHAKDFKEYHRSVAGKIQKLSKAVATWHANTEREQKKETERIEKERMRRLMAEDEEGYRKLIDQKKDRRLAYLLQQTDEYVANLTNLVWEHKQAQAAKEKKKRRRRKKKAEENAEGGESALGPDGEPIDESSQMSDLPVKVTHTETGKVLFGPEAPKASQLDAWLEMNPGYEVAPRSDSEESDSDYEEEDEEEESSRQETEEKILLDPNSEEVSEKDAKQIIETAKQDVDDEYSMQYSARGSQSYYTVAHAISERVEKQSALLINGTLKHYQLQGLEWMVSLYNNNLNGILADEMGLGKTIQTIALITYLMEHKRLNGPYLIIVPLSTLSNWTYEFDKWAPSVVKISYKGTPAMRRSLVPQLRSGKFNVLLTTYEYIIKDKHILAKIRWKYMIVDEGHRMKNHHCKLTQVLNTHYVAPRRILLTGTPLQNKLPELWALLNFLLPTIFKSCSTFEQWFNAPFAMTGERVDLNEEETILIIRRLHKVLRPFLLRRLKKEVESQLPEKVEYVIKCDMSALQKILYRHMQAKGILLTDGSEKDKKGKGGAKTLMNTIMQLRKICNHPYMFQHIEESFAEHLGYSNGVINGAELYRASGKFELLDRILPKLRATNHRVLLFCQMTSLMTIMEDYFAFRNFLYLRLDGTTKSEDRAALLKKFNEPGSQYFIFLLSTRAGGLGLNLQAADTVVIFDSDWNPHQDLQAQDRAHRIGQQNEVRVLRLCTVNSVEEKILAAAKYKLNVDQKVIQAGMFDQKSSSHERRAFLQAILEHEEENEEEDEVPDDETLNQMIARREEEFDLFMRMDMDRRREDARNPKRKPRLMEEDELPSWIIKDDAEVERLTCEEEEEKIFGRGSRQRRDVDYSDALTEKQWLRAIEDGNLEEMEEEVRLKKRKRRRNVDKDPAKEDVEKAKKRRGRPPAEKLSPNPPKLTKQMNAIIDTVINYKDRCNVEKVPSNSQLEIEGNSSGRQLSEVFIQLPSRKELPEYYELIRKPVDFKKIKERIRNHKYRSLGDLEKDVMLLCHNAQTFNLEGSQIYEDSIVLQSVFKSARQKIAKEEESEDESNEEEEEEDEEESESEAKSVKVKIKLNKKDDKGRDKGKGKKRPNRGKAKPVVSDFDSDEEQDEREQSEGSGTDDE

[19] = test system: Vero; assay: cells; format: functional; conditions: Chlorocebus sabaeus
[20] = Counterscreen for activators of the function of SWI/SNF related, matrix associated, actin dependent regulator of chromatin, subfamily a, member 2 (SMARCA2, BRM): Luminescence-based cell-based high throughput dose response assay to identify non-selective compounds using the VP16 reporter assay.; format: functional

Question: Which CC50 [1] does the source give for `Oc1c(Cl)cccc1Cc1cc(Cl)cc(Cl)c1O` here?
Answer: 19.3 µM (active)

Question: What about the AC50 [2] of the same compound?
Answer: 3.05 µM (active)

Question: What about the IC50 [3] of the same compound?
Answer: 45.5 µM (active)

Question: Which EC50 [4] does the source give for `O=C(NCc1ccco1)c1sc(=S)n2c1[nH]c(=O)c1ccccc12` here?
Answer: 0.837 µM (active)

Question: What about the IC50 [5] of the same compound?
Answer: 75.6 µM (active)

Question: What about the EC50 [6] of the same compound?
Answer: > 160 µM (inactive)

Question: What about the EC50 [7] of the same compound?
Answer: > 180 µM (inactive)

Question: And the EC50 [8]?
Answer: > 160 µM (inactive)

Question: And the IC50 [9]?
Answer: > 66 µM (inactive)

Question: What about the IC50 [10] of the same compound?
Answer: > 66 µM (inactive)

Question: Which EC50 [11] does the source give for `c1ccc(COc2cccc(CN3CCN(c4ccccn4)CC3)c2)cc1` here?
Answer: 0.022 µM (active)

Question: What about the EC50 [12] of the same compound?
Answer: 92.5 µM (inactive)

Question: What about the EC50 [13] of the same compound?
Answer: > 195 µM (not active)

Question: Which AC50 [14] does the source give for `O=C(C(=O)N(Cc1ccccc1)Cc1ccccc1)c1c(-c2ccccc2)[nH]c2ccccc12` here?
Answer: 44.5 µM (active)

Question: What about the IC50 [15] of the same compound?
Answer: > 79 µM (inactive)

Question: What about the AC50 [16] of the same compound?
Answer: 7.45 µM (active)

Question: With `Nc1nc(-c2ccccc2)nc(O)c1N=O` as the compound, how does the AC50 [17] read?
Answer: 11.6 µM (active)

Question: What does the source list for `NC(=O)c1ccsc1NC(=O)c1ccc([N+](=O)[O-])o1`?
Answer: EC50 [18]: > 91.1 µM (inactive); CC50 [19]: 11.7 µM (active); EC50 [20]: > 91.1 µM (inactive); IC50 [15]: > 79 µM (inactive); AC50 [16]: 3.8 µM (active)

Question: For `O=C(c1cc2c(s1)CCCCC2)N1CCN(c2ncccn2)CC1`, which EC50 [4] is on record?
Answer: 1.2 µM (active)

Question: What about the EC50 [6] of the same compound?
Answer: 23.9 µM (active)

Question: What about the EC50 [7] of the same compound?
Answer: > 180 µM (inactive)

Question: And the EC50 [8]?
Answer: > 160 µM (inconclusive)

Question: With `NC(=O)c1c(NC(=O)c2ccco2)sc2c1CCC2` as the compound, how does the EC50 [4] read?
Answer: 0.654 µM (inconclusive)

Question: And the EC50 [6]?
Answer: > 150 µM (inactive)

Question: What about the EC50 [7] of the same compound?
Answer: > 180 µM (inactive)

Question: What about the EC50 [8] of the same compound?
Answer: > 150 µM (inactive)
